Measurements taken from PubChem BioAssay AID2060485 (Molecular Pharmacology Branch, DTP, NCI, 2025).

Test system: A375 multi-cell spheroids with HUVEC/MSC, viability
Experiment: Anticancer human tumor A375 cell line growth inhibition [GQUAD];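 also: spheroids exposed to compounds for seven days before readout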
Conditions: for IC50: curve of first compound; for viability, T/C: stronger effect = lower value
Method in brief: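 Tumor cells were grown as complex spheroids with HUVEC endothelial cells and mesenchymal stem cells as stroma. G-quadruplex stabilizers were combined with targeted agents over half-log dilutions from near the clinical Cmax, or from 10 microM.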

[1] = second compound 0.0316 µM, first compound 0.0316 µM
[2] = second compound 0.0316 µM, first compound 0.1 µM
[3] = second compound 0.0316 µM, first compound 0.316 µM
[4] = second compound 0.0316 µM, first compound 1 µM
[5] = second compound 0.0316 µM, first compound 3.16 µM
[6] = second compound 0.0316 µM, first compound 10 µM
[7] = second compound 0.1 µM, first compound 0.0316 µM
[8] = second compound 0.1 µM, first compound 0.1 µM
[9] = second compound 0.1 µM, first compound 0.316 µM
[10] = second compound 0.1 µM, first compound 1 µM
[11] = second compound 0.1 µM, first compound 3.16 µM
[12] = second compound 0.1 µM, first compound 10 µM
[13] = second compound 0.316 µM, first compound 0.0316 µM
[14] = second compound 0.316 µM, first compound 0.1 µM
[15] = second compound 0.316 µM, first compound 0.316 µM
[16] = second compound 0.316 µM, first compound 1 µM
[17] = second compound 0.316 µM, first compound 3.16 µM
[18] = second compound 0.316 µM, first compound 10 µM
[19] = second compound 1 µM, first compound 0.0316 µM
[20] = second compound 1 µM, first compound 0.1 µM
[21] = second compound 1 µM, first compound 0.316 µM
[22] = second compound 1 µM, first compound 1 µM
[23] = second compound 1 µM, first compound 3.16 µM
[24] = second compound 1 µM, first compound 10 µM
[25] = second compound 3.16 µM, first compound 0.0316 µM
[26] = second compound 3.16 µM, first compound 0.1 µM
[27] = second compound 3.16 µM, first compound 0.316 µM
[28] = second compound 3.16 µM, first compound 1 µM
[29] = second compound 3.16 µM, first compound 3.16 µM
[30] = second compound 3.16 µM, first compound 10 µM
[31] = second compound 10 µM, first compound 0.0316 µM
[32] = second compound 10 µM, first compound 0.1 µM
[33] = second compound 10 µM, first compound 0.316 µM
[34] = second compound 10 µM, first compound 1 µM
[35] = second compound 10 µM, first compound 3.16 µM
[36] = second compound 10 µM, first compound 10 µM

## Cc1cccc(N(C)C(=O)C2C(O)CCN2c2nc(C)cc(C(F)(F)F)c2C#N)c1 (stereo unspecified) + Cc1cnc(CNC(=O)c2c(=O)c3ccc(N4CCCN(C)CC4)nc3n3c2sc2ccccc23)cn1
Second compound 0.0316 µM
  IC50: > 10000 nM
Second compound 0.1 µM
  IC50: > 10000 nM
Second compound 0.316 µM
  IC50: > 10000 nM
Second compound 1 µM
  IC50: < 31.6 nM
Second compound 3.16 µM
  IC50: < 31.6 nM
Second compound 10 µM
  IC50: < 31.6 nM
[1]
  viability, T/C: 104%
[2]
  viability, T/C: 89.9%
[3]
  viability, T/C: 104%
[4]
  viability, T/C: 107%
[5]
  viability, T/C: 99.3%
[6]
  viability, T/C: 122%
[7]
  viability, T/C: 75.8%
[8]
  viability, T/C: 69.7%
[9]
  viability, T/C: 77.2%
[10]
  viability, T/C: 76%
[11]
  viability, T/C: 78.8%
[12]
  viability, T/C: 71.8%
[13]
  viability, T/C: 55.6%
[14]
  viability, T/C: 52%
[15]
  viability, T/C: 50.4%
[16]
  viability, T/C: 52.2%
[17]
  viability, T/C: 63.3%
[18]
  viability, T/C: 60.9%
[19]
  viability, T/C: 42.9%
[20]
  viability, T/C: 41.6%
[21]
  viability, T/C: 42.8%
[22]
  viability, T/C: 41.8%
[23]
  viability, T/C: 49.2%
[24]
  viability, T/C: 38.4%
[25]
  viability, T/C: 30.5%
[26]
  viability, T/C: 31.4%
[27]
  viability, T/C: 41%
[28]
  viability, T/C: 31.8%
[29]
  viability, T/C: 35.6%
[30]
  viability, T/C: 38.4%
[31]
  viability, T/C: 31.8%
[32]
  viability, T/C: 29.8%
[33]
  viability, T/C: 33.9%
[34]
  viability, T/C: 33.1%
[35]
  viability, T/C: 35.4%
[36]
  viability, T/C: 32.1%

## Cn1ncnc1[C@H]1c2n[nH]c(=O)c3cc(F)cc(c23)N[C@@H]1c1ccc(F)cc1 + Cc1cnc(CNC(=O)c2c(=O)c3ccc(N4CCCN(C)CC4)nc3n3c2sc2ccccc23)cn1
Second compound 0.0316 µM
  IC50: > 316 nM
Second compound 0.1 µM
  IC50: > 316 nM
Second compound 0.316 µM
  IC50: 40.3 nM
Second compound 1 µM
  IC50: < 0.999 nM
Second compound 3.16 µM
  IC50: < 0.999 nM
Second compound 10 µM
  IC50: < 0.999 nM
Second compound 0.0316 µM, first compound 0.000999 µM
  viability, T/C: 100%
Second compound 0.0316 µM, first compound 0.00316 µM
  viability, T/C: 98.9%
Second compound 0.0316 µM, first compound 0.00999 µM
  viability, T/C: 107%
[1]
  viability, T/C: 97.4%
Second compound 0.0316 µM, first compound 0.0999 µM
  viability, T/C: 75.6%
[3]
  viability, T/C: 90.6%
Second compound 0.1 µM, first compound 0.000999 µM
  viability, T/C: 98.7%
Second compound 0.1 µM, first compound 0.00316 µM
  viability, T/C: 73.7%
Second compound 0.1 µM, first compound 0.00999 µM
  viability, T/C: 72.2%
[7]
  viability, T/C: 68.9%
Second compound 0.1 µM, first compound 0.0999 µM
  viability, T/C: 55.7%
[9]
  viability, T/C: 60.5%
Second compound 0.316 µM, first compound 0.000999 µM
  viability, T/C: 55.8%
Second compound 0.316 µM, first compound 0.00316 µM
  viability, T/C: 55.5%
Second compound 0.316 µM, first compound 0.00999 µM
  viability, T/C: 49.4%
[13]
  viability, T/C: 53.8%
Second compound 0.316 µM, first compound 0.0999 µM
  viability, T/C: 46.6%
[15]
  viability, T/C: 43%
Second compound 1 µM, first compound 0.000999 µM
  viability, T/C: 39%
Second compound 1 µM, first compound 0.00316 µM
  viability, T/C: 47.1%
Second compound 1 µM, first compound 0.00999 µM
  viability, T/C: 44.3%
[19]
  viability, T/C: 41.8%
Second compound 1 µM, first compound 0.0999 µM
  viability, T/C: 41.4%
[21]
  viability, T/C: 44.3%
Second compound 3.16 µM, first compound 0.000999 µM
  viability, T/C: 35.9%
Second compound 3.16 µM, first compound 0.00316 µM
  viability, T/C: 43.8%
Second compound 3.16 µM, first compound 0.00999 µM
  viability, T/C: 34.2%
[25]
  viability, T/C: 30.3%
Second compound 3.16 µM, first compound 0.0999 µM
  viability, T/C: 34.2%
[27]
  viability, T/C: 32.7%
Second compound 10 µM, first compound 0.000999 µM
  viability, T/C: 29.1%
Second compound 10 µM, first compound 0.00316 µM
  viability, T/C: 32.7%
Second compound 10 µM, first compound 0.00999 µM
  viability, T/C: 33%
[31]
  viability, T/C: 32.4%
Second compound 10 µM, first compound 0.0999 µM
  viability, T/C: 36.2%
[33]
  viability, T/C: 32.3%

## O=c1[nH]cc(F)c(=O)[nH]1 + Cc1cnc(CNC(=O)c2c(=O)c3ccc(N4CCCN(C)CC4)nc3n3c2sc2ccccc23)cn1
Second compound 0.0316 µM
  IC50: > 10000 nM
Second compound 0.1 µM
  IC50: > 10000 nM
Second compound 0.316 µM
  IC50: 675 nM
Second compound 1 µM
  IC50: < 31.6 nM
Second compound 3.16 µM
  IC50: < 31.6 nM
Second compound 10 µM
  IC50: < 31.6 nM
[1]
  viability, T/C: 98.5%
[2]
  viability, T/C: 105%
[3]
  viability, T/C: 92.4%
[4]
  viability, T/C: 107%
[5]
  viability, T/C: 112%
[6]
  viability, T/C: 96.5%
[7]
  viability, T/C: 75.9%
[8]
  viability, T/C: 67.8%
[9]
  viability, T/C: 82.8%
[10]
  viability, T/C: 81.4%
[11]
  viability, T/C: 88.7%
[12]
  viability, T/C: 63.1%
[13]
  viability, T/C: 56.8%
[14]
  viability, T/C: 51.4%
[15]
  viability, T/C: 50.7%
[16]
  viability, T/C: 49.4%
[17]
  viability, T/C: 48.6%
[18]
  viability, T/C: 45.3%
[19]
  viability, T/C: 44.9%
[20]
  viability, T/C: 41.3%
[21]
  viability, T/C: 47.6%
[22]
  viability, T/C: 51.7%
[23]
  viability, T/C: 45.8%
[24]
  viability, T/C: 37.7%
[25]
  viability, T/C: 40.3%
[26]
  viability, T/C: 33.4%
[27]
  viability, T/C: 34.6%
[28]
  viability, T/C: 36%
[29]
  viability, T/C: 39%
[30]
  viability, T/C: 30.7%
[31]
  viability, T/C: 37.3%
[32]
  viability, T/C: 30%
[33]
  viability, T/C: 32.6%
[34]
  viability, T/C: 33.9%
[35]
  viability, T/C: 30.3%
[36]
  viability, T/C: 29.4%
